This note sets out measurements from US20110020786A1, “PEPTIDE DENDRIMERS: AFFINITY REAGENTS FOR BINDING NOROVIRUSES” (BAYLOR COLLEGE OF MEDICINE, priority 2007, published 2011).

Ends that are not written are not given here.

Assay [1] deals with immobilized NoVLPs. The experiment in a line: Surface plasmon resonance, dendrimer binding to immobilized NoVLPs (KD determination). Further details: species or system Norovirus. The following applies: steady-state model fit of equilibrium average response, 8-240 μM dendrimer, HBS-P, 10 μL/min. On the procedure:
FIGS. 4A-4B are charts illustrating the concentration dependence of RHFQTHTVPLSL8 (the octovalent dendrimer of SEQ ID NO: 1) binding to immobilized NoVLPs. 1-8 μM; 2-32 μM; 3-64 μM; 4-96 μM; 5-160 μM; 6-240 μM; (FIG. 4A). Samples were prepared in the running buffer (HBS-P) and injected at a flowrate of 10 μL/min. The arrow indicates the end of the injection of the dendrimer (binding phase) which is followed by washing with running buffer (dissociation phase).
Peptide binding to VLPs was detected using a BIAcore 3000 instrument. VLPs were immobilized to a CM5 sensor chip using amine coupling at 5 μL/min in HBS buffer (10 mM HEPES containing 0.15 M NaCl and 0.005% surfactant P20, pH 7.4): the sensor chip surface was activated by a 10 min injection of a solution of 0.05 M NHS (N-hydroxysuccinimide) and 0.2 M EDC (N-ethyl-N′-dimethylaminopropylcarbodiimide) followed by a 5 min injection of VLPs (100 μg/mL) in 10 mM sodium acetate pH 4 and blocking of unreacted activated groups with a 7 min injection of ethanolamine. Final surface densities were typically around 9000 RU.

The test system of assay [2] is native genogroup II Norovirus from clinical samples. In words: Native NoV capture and detection in clinical samples by ELISA. The format is binding. The following applies: dendrimer as capture reagent, stool samples GII #1-3, bound virus detected with NS14. As to the method: The capture reagent was RHFQTHTVPLSL8 (the octovalent dendrimer of SEQ ID NO: 1) (middle bars), or AHFQTHTVPLSL8 (the octovalent dendrimer of SEQ ID NO: 2) (right bars) and bound virus was detected with a MAb3912 (GI) or NS14 (GII). […] For comparison, detection of Norovirus from genogroup I samples (GI#1-3) was evaluated using a genogroup I specific antibody as the capture reagent (left bars). The potential of false positive signals was evaluated using clinical samples negative for Norovirus (negative #1-3) with anti-genogroup I antibody, RHFQTHTVPLSL8 (the octovalent dendrimer of SEQ ID NO: 1) and AHFQTHTVPLSL8 (the octovalent dendrimer of SEQ ID NO: 2) as capture reagents.
Capture and detection of native NoV from clinical samples was performed by ELISA. […] Captured NoV was detected with an anti-Norwalk virus antibody from rabbit (for genogroup I Norwalk detection) or NS14 (for genogroup II NoV detection) as the primary antibody followed by goat anti-rabbit-HRP or goat anti-mouse-HRP as the secondary antibody with detection at 405 nm using the HRP substrate ABTS.

“RHFQTHTVPLSL8 (also: octovalent dendrimer of the peptide)”: binding in assay [1] was put at a Kd of 117 µM. Besides, the “capture of native genogroup II Norovirus from clinical samples” value in assay [2] is on record as “No genogroup II virus could be detected”.
